Measurements: US6492559B1, “Alkylated aminoether surfactants” (Air Products and Chemicals, Inc., priority 1998, dated 2002)

Tests used:
Type in all cases: physicochemical
[1] = Dynamic surface tension of aqueous solutions, maximum bubble pressure method
Text: where n is 2-6, preferably 2-4; m is 0-4, preferably 0-2; and p and q are 2-6, preferably 2 or 3; and R and R′ independently are an alkyl group comprising 5 to 18 carbons, preferably 5 to 8 carbons which is branched or in which the point of attachment to nitrogen is on a nonterminal carbon, for the reduction of equilibrium and dynamic surface tension in water-based compositions containing an organic compound, particularly coating, ink, and agricultural compositions containing organic compounds such as polymeric resins, herbicides, pesticides or plant growth modifying agents. […] The maximum-bubble-pressure method of measuring surface tension is described in Langmuir 1986, 2, 428-432, which is incorporated by reference.
Dynamic surface tension data were obtained for aqueous solutions of the reductive alkylation product of the dialkylated aminoethylether of Example 1 using the maximum bubble pressure method at bubble rates from 0.1 bubbles/second (b/s) to 20 b/s. […] In practical terms, high bubble rates correspond to high printing speeds in lithographic printing, high spray or roller velocities in coating applications, and rapid application rates for agricultural products.

[2] = Foam test based upon ASTM D 1173-53; conditions: 0.1 wt % solution
Description: The foaming properties of 0.1 wt % solutions of the reductive alkylation products of the products of this invention were examined using a procedure based upon ASTM D 1173-53. In this test, a 0.1 wt % solution of the surfactant is added from an elevated foam pipette to a foam receiver containing the same solution. The foam height is measured at the completion of the addition (“Initial Foam Height”) and the time required for the foam to dissipate is recorded (“Time to 0 Foam”). This test provides a comparison between the foaming characteristics of various surfactant solutions. In general, in coatings, inks, and agricultural formulations, foam is undesirable because is complicates handling and can lead to coating and print defects, and to inefficient application of agricultural materials.

Solubility in water = assay: Solubility in water

Dynamic Surface Tension ([1]; 0.1 wt % in water, 0.1 b/s) [dyne/cm] | Dynamic Surface Tension ([1]; 0.1 wt % in water, 1 b/s) [dyne/cm] | Dynamic Surface Tension ([1]; 0.1 wt % in water, 6 b/s) [dyne/cm] | Dynamic Surface Tension ([1]; 0.1 wt % in water, 15 b/s) [dyne/cm] | Dynamic Surface Tension ([1]; 0.1 wt % in water, 20 b/s) [dyne/cm] | Dynamic Surface Tension ([1]; 0.15 wt % in water, 0.1 b/s) [dyne/cm] | Dynamic Surface Tension ([1]; 0.15 wt % in water, 1 b/s) [dyne/cm] | Dynamic Surface Tension ([1]; 0.15 wt % in water, 6 b/s) [dyne/cm] | Dynamic Surface Tension ([1]; 0.15 wt % in water, 15 b/s) [dyne/cm] | Dynamic Surface Tension ([1]; 0.15 wt % in water, 20 b/s) [dyne/cm] | Initial Foam Height [2] [cm] | Time to 0 Foam [2] [s] | Dynamic Surface Tension ([1]; 0.2 wt % in water, 0.1 b/s) [dyne/cm] | Dynamic Surface Tension ([1]; 0.2 wt % in water, 1 b/s) [dyne/cm] | Dynamic Surface Tension ([1]; 0.2 wt % in water, 6 b/s) [dyne/cm] | Dynamic Surface Tension ([1]; 0.2 wt % in water, 15 b/s) [dyne/cm] | Dynamic Surface Tension ([1]; 0.2 wt % in water, 20 b/s) [dyne/cm] | Dynamic Surface Tension ([1]; 0.5 wt % in water, 0.1 b/s) [dyne/cm] | Dynamic Surface Tension ([1]; 0.5 wt % in water, 1 b/s) [dyne/cm] | Dynamic Surface Tension ([1]; 0.5 wt % in water, 6 b/s) [dyne/cm] | SMILES | further results
30.8 | 31.3 | 32.6 | 34.4 | 34.9 | 29.3 | 29.9 | 30.1 | 32.9 | 33.3 | 1.0 | 2 | – | – | – | – | – | – | – | – | CC(C)CC(C)NCCCOCCCNC(C)CC(C)C (stereo not shown) [APE/MIBK2] | –
30.3 | 30.8 | 31.8 | 33.4 | 34.1 | 27.6 | 27.9 | 28.7 | 30.1 | 30.6 | – | – | 26.7 | 26.9 | 27.4 | 28.8 | 29.3 | – | – | – | CC(C)CC(C)NCCOCCNC(C)CC(C)C (stereo not shown) [AEE/MIBK2] | solubility limit (Solubility in water): about 0.2 wt %; Dynamic Surface Tension ([1]; 0.03 wt % in water, 0.1 b/s): 37.9 dyne/cm; Dynamic Surface Tension ([1]; 0.03 wt % in water, 1 b/s): 39.0 dyne/cm; Dynamic Surface Tension ([1]; 0.03 wt % in water, 6 b/s): 42.8 dyne/cm; Dynamic Surface Tension ([1]; 0.03 wt % in water, 15 b/s): 47.9 dyne/cm; Dynamic Surface Tension ([1]; 0.03 wt % in water, 20 b/s): 48.2 dyne/cm; Dynamic Surface Tension ([1]; 0.05 wt % in water, 0.1 b/s): 34.7 dyne/cm; Dynamic Surface Tension ([1]; 0.05 wt % in water, 1 b/s): 35.4 dyne/cm; Dynamic Surface Tension ([1]; 0.05 wt % in water, 6 b/s): 37.6 dyne/cm; Dynamic Surface Tension ([1]; 0.05 wt % in water, 15 b/s): 40.9 dyne/cm; Dynamic Surface Tension ([1]; 0.05 wt % in water, 20 b/s): 41.9 dyne/cm; Dynamic Surface Tension ([1]; 0.07 wt % in water, 0.1 b/s): 32.4 dyne/cm; Dynamic Surface Tension ([1]; 0.07 wt % in water, 1 b/s): 33.0 dyne/cm; Dynamic Surface Tension ([1]; 0.07 wt % in water, 6 b/s): 34.5 dyne/cm; Dynamic Surface Tension ([1]; 0.07 wt % in water, 15 b/s): 36.8 dyne/cm; Dynamic Surface Tension ([1]; 0.07 wt % in water, 20 b/s): 37.7 dyne/cm
35.5 | 36.0 | 37.2 | 38.7 | 39.2 | – | – | – | – | – | 2.6 | 8 | 31.6 | 32.0 | 32.9 | 33.8 | 34.1 | 29.7 | 29.8 | 30.1 | CC(C)CC(C)NCCCOCCOCCCNC(C)CC(C)C (stereo not shown) [BAPE/MIBK2] | solubility (in words) (Solubility in water): relatively high solubility; Dynamic Surface Tension ([1]; 0.5 wt % in water, 15 b/s): 30.8 dyne/cm; Dynamic Surface Tension ([1]; 0.5 wt % in water, 20 b/s): 31.0 dyne/cm
39.2 | 39.7 | 40.8 | 42.0 | 42.2 | – | – | – | – | – | 3.1 | 5 | – | – | – | – | – | 30.6 | 30.7 | 31.0 | CC(C)CC(C)NCCCOCCOCCOCCCNC(C)CC(C)C (stereo not shown) [BAPEE/MIBK2] | Dynamic Surface Tension ([1]; 0.5 wt % in water, 15 b/s): 31.8 dyne/cm; Dynamic Surface Tension ([1]; 0.5 wt % in water, 20 b/s): 32.2 dyne/cm
